# Experimental data from US5627035A, “Peptides that block human immunodeficiency virus and methods of use thereof” (Syntello Vaccine Development AB, priority 1995, dated 1997).
# Where a SMILES comes first, the peptide text is derived from it.
# Experiments:
# [1] = tested on: herpes simplex virus type I (HSV-1) strain McIntyre; assay: Yield inhibition assay of HSV-1 in GMK cells; assay type: cell-based; conditions: plaque reduction and virus yields
# Method: The yield inhibition assay was performed as follows: HSV-1 was inoculated at a multiplicity of 0.5 pfu per GMK cell in the presence of the respective peptide at concentrations of 250 and 25 μg/ml. Virus adsorption was performed for 60 min. at room temperature. The cells were then rinsed five times with Hanks' Balanced Salt Solution (BSS) and incubated in a 5% CO2 atmosphere at 37° C. with maintenance medium containing either peptides or acyclovir, according to the methods described in "Proceedings of a Symposium on Acyclovir", The American Journal of Medicine, Jul. 20, (1982) which is incorporated herein by reference, or without any additives. Twenty-four hours p.i. the cells were freeze-thawed, scraped into the medium and tested for virus yield by the infectivity assay as outlined in Example 2. The results are shown in Table 7 where the plaque reduction values are the mean of two cultures and the yield of HSV-1 after 24 hours is the mean of two determinations and the values are presented in millions of pfu/ml.
# HTLV-111B/H9 New York = assay: Infectivity assay HTLV-IIIB/H9 New York: p24 ELISA (absorbance 454 nm of diluted supernatant), syncytia, immunofluorescence; assay type: cell-based, HIV-1; conditions: for # OF SYNCYTIA/WELL Day 14 / PERCENTAGE OF AG POS CELLS / p24 1/10 / p24 1/100 / p24 1/1,000: Table 6; for HIV infection by p24 synthesis and syncytia formation, in words: Tables 3-6
# Method: Virus at 100 50% tissue culture infectious doses (TCID50) and peptides at concentrations of 250 and 25 μg/ml were added to the cells simultaneously and incubated for 2 hours at 4° C. with frequent stirring. Subsequently, the temperature was increased to 37° C. and the mixtures were subjected to a second incubation for 2 hours. Following the second incubation, the cells were centrifuged at 325 x g and washed once in RPMI medium (Gibco Laboratories, N.Y.). Cells, at a concentration of 5×10^5 /ml, were then added to 24 multidish well plates at a final volume of 1.5 ml of growth medium (RPMI supplemented with 10% fetal calf serum (FCS), antibiotics and polybrene (2 μg/ml)), with the addition of peptides at dilutions of 250 or 25 μg/ml. […] As additional controls, two HIV infected cell cultures (designated pos. controls 1 and 2, Tables 3-5) and two uninfected cell cultures (designated neg. controls 1 and 2) were used.
# Infected cells were continuously monitored for formation of syncytia and the growth medium supernatants were analyzed at days 9-12 p.i. for p24 antigen which is an indicator of HIV replication.
# Briefly, the following protocol was used for detection of the p24 antigen. HIV p24 antigen was determined using a rabbit anti-p24 polyclonal antiserum as capture antibody and a biotinylated rabbit anti-p24 polyclonal antibody was used as detecting antibody in an avidin-horse radish peroxidase (HRP) ELISA. The sensitivity of the assay allowed detection of approximately 50 pg of p24 antigen per ml supernatant. […] Serial dilutions of the supernatants were made so as to detect p24 concentration in the most accurate range (<2.0 absorbance units).
# The number of infected cells were then determined by indirect immunofluorescence using a human HIV positive serum diluted 1/100 and FITC conjugated antihuman IgG (Bio Merieux, France) diluted 1/200.
# In tables 3-6, the p24 content of the supernatants of infected cells was determined by diluting the supernatants of infected cells in serial tenfold dilutions (1/10, 1/100, 1/1000 and 1/10,000) and analyzing in ELISA as described above. Results are indicated by the absorbance values (454nm) of respective dilutions.
# In tables 8 and 9, the p24 content of the supernatants of infected cells was determined by diluting the supernatants in serial tenfold dilutions (1/10, 1/100, 1/1,000) and analyzing by ELISA as described in Example 2. Results are indicated by the absorbance values (454 nm) of respective dilutions.
# normal T cells = assay: In vitro proliferative response of normal T cells to mitogens, stimulation index; assay type: cell-based, human
# Method: The in vitro proliferative response of normal T cells was examined after concurrent exposure of unfractionated, and T cell enriched (CD4^+ or CD8^+ enriched using DYNABEADS M-450 CD4 and DYNABEADS M-450 CD, magnetic beads according to the manufacturer's instructions, DYNAL A. S. Oslo Norway).
# The results are indicated as the stimulation index which is calculated as follows: the ratio between radioactive Thymidine incorporated in cell cultures exposed to mitogen alone or mitogen plus Gly-Pro-Gly divided by the radioactive Thymidine incorporated in identical cell cultures exposed to medium alone.
# [2] = In vivo toxicity: growth of mice given intraperitoneal Gly-Pro-Gly; parameters: Mean weight of mice: unit not given here
# Source text: In an in vivo test of the toxicity of Gly-Pro-Gly, groups of mice were given intraperitoneal injections of the substance starting at an age of 6 days. FIG. 3 also graphically depicts the results. […] The peptides are thus nontoxic even when given in large doses.
# [3] = Humoral anti-TNP antibody response in mice pretreated with Gly-Pro-Gly, ELISA endpoint titer; assay type: in vivo; conditions: 5 mg/day/animal for 5 days
# Method: The effects of Gly-Pro-Gly on development of humoral specific antibody responses was examined in mice. For this purpose, Gly-Pro-Gly was administered in adult (4 weeks old, sex matched) Swiss albino outbred mice by intraperitoneal injections given daily for 5 consecutive days. The control group was not given Gly-Pro-Gly, whereas the second and third groups were given 0.5 mg and 5 mg Gly-Pro-Gly respectively. […]
# Serum antibody responses to the TNP group were monitored by the ELISA technique performed on serum samples collected 2 weeks after the second injection. […]
# ELISA assays were performed as follows. […] TNP-reactive antibodies were then detected by stepwise addition of enzyme labelled goat antibodies to mouse IgG1, IgG2a, IgG2b, IgG3 or IgM (all obtained from Southern Biotechnology Associates, Birmingham, Ala.) and enzyme substrate. Results are expressed as endpoint titer, the latter being defined as the reciprocal of the highest dilution of serum giving an ELISA absorbance value equal to 3 times that of control wells exposed to buffer alone but not serum.
molecule,measurement,setting,value
"Nc1nc2c(ncn2COCCO)c(=O)[nH]1 [Acyclovir, acyclovir]","capacity of HSV-1 to replicate in GMK cells, in words",[1],significantly reduced
Gly-Pro-Gly-Gly (GPGG; printed: Gly-Pro-Gly-Gly),# OF SYNCYTIA/WELL Day 14,HTLV-111B/H9 New York; 25 μg/ml,15
same,PERCENTAGE OF AG POS CELLS,HTLV-111B/H9 New York; 25 μg/ml,25-30%
same,p24 1/10,HTLV-111B/H9 New York; 25 μg/ml,0.933
same,p24 1/100,HTLV-111B/H9 New York; 25 μg/ml,0.11
same,"p24 1/1,000",HTLV-111B/H9 New York; 25 μg/ml,0.016
same,# OF SYNCYTIA/WELL Day 14,HTLV-111B/H9 New York; 250 μg/ml,20
same,PERCENTAGE OF AG POS CELLS,HTLV-111B/H9 New York; 250 μg/ml,30%
same,p24 1/10,HTLV-111B/H9 New York; 250 μg/ml,0.523
same,p24 1/100,HTLV-111B/H9 New York; 250 μg/ml,0.052
same,"p24 1/1,000",HTLV-111B/H9 New York; 250 μg/ml,0.007
same,"HIV infection by p24 synthesis and syncytia formation, in words",HTLV-111B/H9 New York,no inhibitory effect on HIV replication
NCC(=O)N1CCC[C@H]1C(=O)NCC(N)=O [Gly-Pro-Gly] (H-Gly-Pro-Gly-NH2),direct anti-proliferative properties on T cells,normal T cells; doses as high as 20 μM,marginal if any
same,effect on normal T cell and B cell functions,"normal T cells; in vitro human, in vivo murine",no effect
same,Mean weight of mice,"[2]; Feb. 25, 0.001 g GPG i.p.",5.66
same,Mean weight of mice,"[2]; Feb. 25, 0.1 g GPG i.p.",4.98
same,Mean weight of mice,"[2]; Feb. 25, 1 g GPG i.p.",5.62
same,Mean weight of mice,"[2]; Feb. 26, 0.001 g GPG i.p.",6.24
same,Mean weight of mice,"[2]; Feb. 26, 0.1 g GPG i.p.",5.54
same,Mean weight of mice,"[2]; Feb. 26, 1 g GPG i.p.",6.27
same,Mean weight of mice,"[2]; Feb. 27, 0.001 g GPG i.p.",6.76
same,Mean weight of mice,"[2]; Feb. 27, 0.1 g GPG i.p.",6.41
same,Mean weight of mice,"[2]; Feb. 27, 1 g GPG i.p.",7.04
same,Mean weight of mice,"[2]; Feb. 28, 0.001 g GPG i.p.",7.40
same,Mean weight of mice,"[2]; Feb. 28, 0.1 g GPG i.p.",7.11
same,Mean weight of mice,"[2]; Feb. 28, 1 g GPG i.p.",7.80
same,Mean weight of mice,"[2]; March 1, 0.001 g GPG i.p.",7.83
same,Mean weight of mice,"[2]; March 1, 0.1 g GPG i.p.",8.00
same,Mean weight of mice,"[2]; March 1, 1 g GPG i.p.",8.61
same,Mean weight of mice,"[2]; March 4, 0.001 g GPG i.p.",9.22
same,Mean weight of mice,"[2]; March 4, 0.1 g GPG i.p.",9.35
same,Mean weight of mice,"[2]; March 4, 1 g GPG i.p.",10.53
same,Mean weight of mice,"[2]; March 5, 0.001 g GPG i.p.",9.63
same,Mean weight of mice,"[2]; March 5, 0.1 g GPG i.p.",10.04
same,Mean weight of mice,"[2]; March 5, 1 g GPG i.p.",11.22
same,Mean weight of mice,"[2]; March 6, 0.001 g GPG i.p.",9.88
same,Mean weight of mice,"[2]; March 6, 0.1 g GPG i.p.",10.35
same,Mean weight of mice,"[2]; March 6, 1 g GPG i.p.",11.44
same,Mean weight of mice,"[2]; March 7, 0.001 g GPG i.p.",9.95
same,Mean weight of mice,"[2]; March 7, 0.1 g GPG i.p.",11.17
same,Mean weight of mice,"[2]; March 7, 1 g GPG i.p.",12.12
same,Mean weight of mice,"[2]; March 8, 0.001 g GPG i.p.",10.30
same,Mean weight of mice,"[2]; March 8, 0.1 g GPG i.p.",11.38
same,Mean weight of mice,"[2]; March 8, 1 g GPG i.p.",12.69
same,Mean weight of mice,"[2]; March 15, 0.001 g GPG i.p., no injections 3/8-3/15",16.59
same,Mean weight of mice,"[2]; March 15, 0.1 g GPG i.p., no injections 3/8-3/15",17.46
same,Mean weight of mice,"[2]; March 15, 1 g GPG i.p., no injections 3/8-3/15",19.85
same,influence on the growth of mice,[2]; compared with controls,no significant influence
same,humoral immune responsiveness of mice,[3],do not appreciably influence
Gly-Pro-Ala,# OF SYNCYTIA/WELL Day 14,HTLV-111B/H9 New York; 25 μg/ml,85
same,PERCENTAGE OF AG POS CELLS,HTLV-111B/H9 New York; 25 μg/ml,30-40%
same,p24 1/10,HTLV-111B/H9 New York; 25 μg/ml,> 2.0
same,p24 1/100,HTLV-111B/H9 New York; 25 μg/ml,0.616
same,"p24 1/1,000",HTLV-111B/H9 New York; 25 μg/ml,0.154
same,# OF SYNCYTIA/WELL Day 14,HTLV-111B/H9 New York; 250 μg/ml,20
same,PERCENTAGE OF AG POS CELLS,HTLV-111B/H9 New York; 250 μg/ml,20-30%
same,p24 1/10,HTLV-111B/H9 New York; 250 μg/ml,> 2.0
same,p24 1/100,HTLV-111B/H9 New York; 250 μg/ml,0.299
same,"p24 1/1,000",HTLV-111B/H9 New York; 250 μg/ml,0.059
same,"HIV infection by p24 synthesis and syncytia formation, in words",HTLV-111B/H9 New York,no inhibitory effect on HIV replication
